“And” between values parts separate entries of the source, which are not always exact repeats. Equal values may be shown once. No end group written: not given here.
Legend:
human CRHR2 [1] = target: T1, human CRHR2 (Homo sapiens, UniProt Q13324); experiment: Radioligand binding, membranes of SK-N-MC cells transfected with human CRHR2, [125I]-anti-sauvagine-30; conditions: for CRHR2 nH: Table 15, slope of competition curve
T1 construct: expressed in transfected cells
T1 sequence (Q13324 1-411): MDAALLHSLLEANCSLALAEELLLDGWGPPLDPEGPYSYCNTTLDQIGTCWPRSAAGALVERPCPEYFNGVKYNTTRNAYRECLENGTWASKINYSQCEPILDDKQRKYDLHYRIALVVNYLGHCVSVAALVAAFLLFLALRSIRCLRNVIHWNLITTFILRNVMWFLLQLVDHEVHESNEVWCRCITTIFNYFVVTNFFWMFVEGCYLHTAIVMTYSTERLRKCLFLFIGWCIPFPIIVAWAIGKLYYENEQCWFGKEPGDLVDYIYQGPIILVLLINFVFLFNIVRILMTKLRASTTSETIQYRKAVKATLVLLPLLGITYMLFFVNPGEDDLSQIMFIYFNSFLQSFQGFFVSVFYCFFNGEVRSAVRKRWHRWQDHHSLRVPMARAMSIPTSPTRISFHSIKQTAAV
Protocol: The binding profile of h-SCP (SEQ ID NO:1) at CRHR2 was determined in radioligand binding studies in a membrane preparation of SK-N-MC cells stably transfected with human CRHR2 using [^125I]-anti-sauvagine-30 as the radiolabel. […] The solution was then homogenized with a Polytron tissue grinder at a setting of 10 and 7×3 s (Brinkmann Instruments, Westbury, N.Y.). The homogenate was centrifuged at 4° Celsius at 800×g for 5 min with the pellet being discarded. The supernatant was re-centrifuged at 26,892×g for 25 min at 4° Celsius with the final pellet being re-suspended in assay buffer. All binding assays were conducted in 96-well Multiscreen GF/B filter plates (Millipore, Billericay, Mass., U.S.A.) that were pre-soaked in assay buffer with 0.3% PEI for 1 hour. […] The bound radioactivity was separated by filtration using a Multiscreen Resist manifold (Millipore Corp., Billerica, Mass., U.S.A). The filters were washed three times with ice-cold PBS at pH 7.5 and radioactivity retained on the filters was quantified by its liquid scintillation measured by a TopCount counter (Packard BioScience, Boston, Mass., U.S.A). All experiments were performed in triplicate. Data from individual competition curves were expressed as the percentage of specific [^125I]-anti-sauvagine-30 or)[^125I]-([…])-sauvagine binding (B) within each experiment.

human CRHR2 [2] = target: T1, human CRHR2; experiment: cAMP assay in h-CRHR2 transfected SK-N-MC cells; format: cell-based; conditions: for Experimental nH / nH: Hill slope; for Experimental αmax: maximal asymptote
Procedure, shortened: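 SK-N-MC cells stably expressing human CRHR2 were stimulated with peptides (1 pM-10 μM) for 60 min at 37 °C with 10 μM IBMX, then lysed in 0.5 M HCl. cAMP was quantified by competitive [125I]-cAMP antibody flash-plate assay. Hill-equation fits gave A50/pA50; Log DR was taken relative to h-SCP control in the same batch.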

[3] = CRHR2, Table 11, listed as h-SRP
[4] = CRHR2, Table 11, listed as h-SCP

Row | Molecule | CRHR2 nH (human CRHR2 [1]) | Experimental nH (human CRHR2 [2]; CRHR2, Table 11) | Experimental αmax (human CRHR2 [2]; CRHR2, Table 11) | Experimental nH (human CRHR2 [2]; [3]) | Experimental αmax (human CRHR2 [2]; [3]) | competition curve / affinity states (human CRHR2 [1]; [125I]-anti-sauvagine-30 competition) | Experimental pA50 (human CRHR2 [2]; CRHR2, Table 11, 1 hr at 37° Celsius, listed as h-SCP) | Experimental nH (human CRHR2 [2]; [4]) | Experimental αmax (human CRHR2 [2]; [4]) | nH (human CRHR2 [2]; Table 12) | pA50 (human CRHR2 [2]; Table 12, amidation and N-terminal deletions, 3-5 replicate experiments) | pA50 (human CRHR2 [2]; Table 14) | nH (human CRHR2 [2]; Table 14) | EC50 (human CRHR2 [2]; text b184, read-out: concentration required for 50% maximum effect (A50)) | pA50 (human CRHR2 [2]; text b201-b202, N-terminal deletions, parent in one batch)
1 | CC[C@H](C)[C@H](NC(=O)[C@H](CO)NC(=O)[C@H](CC(C)C)NC(=O)[C@@H]1CCCN1C(=O)[C@@H]1CCCN1C(=O)[C@H](CC(=O)O)NC(=O)[C@@H](N)CC(=O)O)C(=O)N[C@@H](CC(=O)O)C(=O)N[C@@H](CC(C)C)C(=O)N[C@H](C(=O)N[C@@H](Cc1ccccc1)C(=O)N[C@@H](Cc1c[nH]cn1)C(=O)N[C@@H](CC(C)C)C(=O)N[C@@H](CC(C)C)C(=O)N[C@@H](CCCNC(=N)N)C(=O)N[C@H](C(=O)N[C@@H](CC(C)C)C(=O)N[C@@H](CC(C)C)C(=O)N[C@@H](CCC(=O)O)C(=O)N[C@@H](CC(C)C)C(=O)N[C@@H](C)C(=O)N[C@@H](CCCNC(=N)N)C(=O)N[C@H](C(=O)N[C@@H](CCC(N)=O)C(=O)N[C@@H](CO)C(=O)N[C@@H](CCC(N)=O)C(=O)N[C@@H](CCCNC(=N)N)C(=O)N[C@@H](CCC(=O)O)C(=O)N[C@@H](CCCNC(=N)N)C(=O)N[C@@H](C)C(=O)N[C@@H](CCC(=O)O)C(=O)N[C@@H](CCC(N)=O)C(=O)N[C@@H](CC(N)=O)C(=O)N[C@@H](CCCNC(=N)N)C(=O)N[C@H](C(=O)N[C@H](C(=O)N[C@@H](Cc1ccccc1)C(=O)N[C@@H](CC(=O)O)C(=O)N[C@@H](CO)C(=O)N[C@H](C(N)=O)C(C)C)[C@@H](C)CC)[C@@H](C)CC)[C@@H](C)O)[C@@H](C)O)[C@@H](C)O [SEQ ID NO: 114, DDPPLSIDLTFHLLRTLLELARTQSQRERAEQNRIIFDSV-NH2] | 1.19 ± 0.14 | 1.07 | 110.5 | – | – | – | – | – | – | – | – | – | – | – | –
2 | HPGSRIVLSLDVPIGLLQILLEQARARAAREQATTNARILARV-NH2 [SEQ ID NO: 117, HPGSRIVLSLDVPIGLLQILLEQARAPAAREQATTNARILARV-NH2, reference compound] | 1.26 ± 0.14 | – | – | 1.08 and 1.06 and 0.99 | 113.5 and 108.7 and 98.56 | – | – | – | – | – | – | – | – | – | –
3 | TKFTLSLDVPTNIMNLLFNIAKAKNLRAQAAANAHLMAQI-NH2 [SEQ ID NO: 1, TKFTLSLDVPTNIMNLLFNIAKAKNLRAQAAANAHLMAQI-NH2, reference compound] | 1.00 ± 0.04 | – | – | – | – | biphasic | 9.41 | 0.99 and 1.04 and 1.39 and 1.55 | 99.31 and 97.53 and 116.1 and 98.2 | 1.18 | 9.41 | 9.40 | 1.26 | 400 pM | 9.41±0.03

From patent publication US10040838B2, “CRHR2 peptide agonists and uses thereof” (JANSSEN PHARMACEUTICA NV, priority 2008, dated 2018)
